# In US20140088063A1, “AGENTS FOR TREATING NEURODEGENERATIVE DISORDERS” (priority 2010, published 2014):
# Marks after values point to notes of the source that are not given here.
# How the values were obtained:
# male white rats [1] = test: Behavioral despair test (forced swimming); type: in vivo; details: 3 h
# Description: This behavior reflects a state of despair which can be reduced by several agents which are therapeutically effective in human depression.
# (§1) The male white rats (250-280 g) were treated intraperitoneally according to procedure described below. The animals were divided into five groups of ten rats and treated as follows. The rats of first group were used as controls. They were injected intraperitoneally with distilled water 24 h, 3 h, 40 minutes before the experiment. Second group was treated with Compound I′ at a dose 100 mg/kg i.p. 24 h, 3 h, 40 minutes before the experiment. Third group was treated with Amitriptyline at a dose 10 mg/kg i.p. using the same regimen as in groups above.
# The antidepressant activity was assessed by estimating immobility time as a period in which animal remains immobile during swimming (see Table 2). Statistical data processing was performed using “BioStat” tool for Windows.
# male white rats [2] = test: Modified behavioral despair test (water wheel); type: in vivo; details: 3 h
# Description: Nomura et al. (1982) published a modification of the despair swim test in mice involving small water wheel set in a water tank. Mice placed on this apparatus turned the wheel vigorously but when they abandoned attempts to escape from the water, the wheel stopped turning. Antidepressant activity of compounds was assessed by counting the number of rotations of the water wheel (see Table 4).
# as §1, with “Ia” for “I′”
# The antidepressant activity was assessed by estimating immobility time as a period in which animal remains immobile during swimming (see Table 4). Statistical data processing was performed using “BioStat” tool for Windows.
# C57BL/6J mice [3] = test: Learned helplessness test (compound of formula I′); type: in vivo
# Description: As explained above, the learned helplessness test in mice is the well-known animal model to determine antidepressant efficacy of compounds. Basically when animals learned to be helpless are given antidepressant drugs, they unlearn helplessness and start exerting control over their environment. Antidepressant activity of compounds was assessed by estimating latency time as a period in which animal is not trying to escape from stress (see Table 3). […]
# C57BL/6J mice [4] = test: Toxicity test, median lethal dose after intraperitoneal injection; type: in vivo
# Description: Toxicity to mammals was measured after intraperitoneal injections of compounds of formula I to C57BL/6J mice. Median lethal dose (LD50) was calculated as described previously (see table 1).
# C57BL/6J mice [5] = test: Learned helplessness test (compounds of formula I); type: in vivo; details: percent of control (non-treated animals) taken as 100%; for Latency time, % 1/3 LD50: i.p. dose 1/3 of LD50; for Latency time, % 1/13 LD50: i.p. dose 1/13 of LD50
# Description: The learned helplessness test in mice is the well-known animal model to determine antidepressant efficacy of compounds. Basically when animals learned to be helpless are given antidepressant drugs, they unlearn helplessness and start exerting control over their environment.
# The C57BL/6J mice were treated intraperitoneally with compounds of formula I intraperitoneally at dose corresponding to ⅓ or 1/13 of lethal dose, then antidepressant activity of compounds was assessed by estimating latency time as a period in which animal is not trying to escape from stress (see Table 1).
# C57BL/6J mice [6] = test: Black and white box test (light-dark test); type: in vivo; details: entries to the light zone; i.p.; percent of control (non-treated animals) taken as 100%
# Text: The black and white test (also named light-dark test) is based on the conflict of natural tendencies of rodents to avoid lighted and open areas and to explore novel environments. Relative time spent in exploring each compartment indicates the anxiety level of the animal: Avoidance of the brightly lit area is considered reflecting “anxiety-like” behaviors. When treated with anxiolytic drugs, rodents spend more time in this area, an effect purportedly due to a decrease in anxiety.
# The C57BL/6J mice were treated intraperitoneally with compound of the invention, then anxiolytic efficacy of compounds of formula I was assessed by estimating the number of entries to the light zone (see Table 1).
# [7] = acute toxicity, known antidepressants for comparison; cited from earlier work
# [8] = 10 mg/kg i.p. 24 h, 40 minutes before the experiment (Fluoxetin as powder)
# [9] = 90 mg/kg i.p. once daily, 2 days course
# [10] = 90 mg/kg i.p. once daily, 6 days course
# [11] = 90 mg/kg i.p. once daily, 12 days course
# [12] = 100 mg/kg i.p. 24 h, 40 minutes before the experiment
# [13] = 100 mg/kg i.p. three times 24 h, 40 min before experiment
smiles,measurement,setting,value
"CN(C)CCC=C1c2ccccc2CCc2ccccc21 [Amitriptyline, reference compound]",Immobility time,male white rats [1]; [8],145.62 ± 45.39 s
same,Rotation number,male white rats [2]; [8],165.93 ± 35.41
CNCCC(Oc1ccc(C(F)(F)F)cc1)c1ccccc1 (centres unmarked) [Fluoxetin],Immobility time,male white rats [1]; [8],337.45 ± 36.69 s
same,Immobility time,"male white rats [1]; 20 mg/kg 24 h, 40 minutes before the experiment (Fluoxetin as tablet)",218.45 ± 38.87 s
same,Rotation number,male white rats [2]; [8],108.34 ± 53.96
"C1CCC2(CC1)NN2CCN1NC12CCCCC2 [Ia, meso-1S,2S,1′R,2′R-1-[2-(1,2-diazaspiro[2.5]oct-1-yl)ethyl]-1,2-diazaspiro[2.5]octane]",Latency time,C57BL/6J mice [3]; [9],13.6 ± 1.1 s
same,"Non-escaping animals, %",C57BL/6J mice [3]; [9],18** %
same,Latency time,C57BL/6J mice [3]; [10],7.5 ± 0.9 s
same,"Non-escaping animals, %",C57BL/6J mice [3]; [10],12** %
same,Latency time,C57BL/6J mice [3]; [11],6.2 ± 0.5 s
same,"Non-escaping animals, %",C57BL/6J mice [3]; [11],1.4** %
same,effect of single doses in learned helplessness test,C57BL/6J mice [3]; single dose,not effective
same,LD50,C57BL/6J mice [4],611 mg/kg
same,"Latency time, % 1/3 LD50",C57BL/6J mice [5],56** %
same,"Latency time, % 1/13 LD50",C57BL/6J mice [5],72** %
same,"Number of entries, %",C57BL/6J mice [6],56** %
"CC1(C)NN1CCCCN1NC1(C)C [Ic, meso-1S,2S,1′R,2′R-1-[4-(3,3-dimethyldiaziridin-1-yl)butyl]-3,3-dimethyldiaziridine]",LD50,C57BL/6J mice [4],1000 mg/kg
same,"Latency time, % 1/3 LD50",C57BL/6J mice [5],188** %
same,"Latency time, % 1/13 LD50",C57BL/6J mice [5],104%
same,"Number of entries, %",C57BL/6J mice [6],62** %
"CC1(C)NN1CCN1NC12CCCCC2 [Ie, meso-1S,2S,1′R,2′R-1-[2-(3,3-dimethyldiaziridin-1-yl)ethyl]-1,2-diazaspiro[2.5]octane]",LD50,C57BL/6J mice [4],1125 mg/kg
same,"Latency time, % 1/3 LD50",C57BL/6J mice [5],62** %
same,"Latency time, % 1/13 LD50",C57BL/6J mice [5],74** %
same,"Number of entries, %",C57BL/6J mice [6],75** %
"C1CCC2(C1)NN2CCN1NC12CCCC2 [If, meso-1S,2S,1′R,2′R-1-[2-(1,2-diazaspiro[2.4]hept-1-yl)ethyl]-1,2-diazaspiro[2.4]heptane]",LD50,C57BL/6J mice [4],1150 mg/kg
same,"Latency time, % 1/3 LD50",C57BL/6J mice [5],95%
same,"Latency time, % 1/13 LD50",C57BL/6J mice [5],94%
same,"Number of entries, %",C57BL/6J mice [6],60** %
"[H][N@]1[N@@](CC[N@@]2[N@]([H])C2(C)C)C1(C)C [I′, meso-1S,2S,1′R,2′R-1-[2-(3,3-dimethyldiaziridin-1-yl)ethyl]-3,3-dimethyldiaziridine]",time after which antidepressive effect was observed,"C57BL/6J mice [3]; 90 mg/kg i.p. once daily, earlier than for comparative drugs",2 days
same,Immobility time,male white rats [1]; [12],291.55 ± 43.94 s
same,antidepressant activity (behavioral despair test),male white rats [1]; [13],significant antidepressant activity
same,Rotation number,male white rats [2]; [12],156.48 ± 26.79
same,antidepressant activity (modified behavioral despair test),male white rats [2]; [13],significant antidepressant activity
O=C(CCNNC(=O)c1ccncc1)NCc1ccccc1 [Nyalamidum],LD50,[7],820 mg/kg
CN(C)CCCC1(c2ccc(F)cc2)OCc2cc(C#N)ccc21 (centres unmarked) [cypramile],LD50,[7],1.7 mg/kg
CN(C)CCCN1c2ccccc2CCc2ccccc21 [melipramine],Latency time,"C57BL/6J mice [3]; 7 mg/kg i.p., 2 days course",13.5 ± 1.8 s
same,"Non-escaping animals, %","C57BL/6J mice [3]; 7 mg/kg i.p., 2 days course",43%
same,Latency time,"C57BL/6J mice [3]; 7 mg/kg i.p., 6 days course",11.8 ± 1.5 s
same,"Non-escaping animals, %","C57BL/6J mice [3]; 7 mg/kg i.p., 6 days course",29%
same,Latency time,"C57BL/6J mice [3]; 7 mg/kg i.p., 12 days course",9.2 ± 1.1 s
same,"Non-escaping animals, %","C57BL/6J mice [3]; 7 mg/kg i.p., 12 days course",11* %
Cc1ccc2c(c1)c1c3n2CCNC3CCC1 (centres unmarked) [pirazidole],Latency time,"C57BL/6J mice [3]; 10 mg/kg i.p., 2 days course",13.6 ± 1.1 s
same,"Non-escaping animals, %","C57BL/6J mice [3]; 10 mg/kg i.p., 2 days course",39%
same,Latency time,"C57BL/6J mice [3]; 10 mg/kg i.p., 6 days course",10.0 ± 1.4 s
same,"Non-escaping animals, %","C57BL/6J mice [3]; 10 mg/kg i.p., 6 days course",18%
same,Latency time,"C57BL/6J mice [3]; 10 mg/kg i.p., 12 days course",8.3 ± 0.7 s
same,"Non-escaping animals, %","C57BL/6J mice [3]; 10 mg/kg i.p., 12 days course",14* %
